From ChEMBL document CHEMBL1201862, “PubChem BioAssay data set” (2004)
Calls of active or inactive are those of the source.

What was measured:
[1] = Late stage assay provider results from the probe development effort to identify selective inhibitors of heat shock protein 90 (HSP90): Absorbance-based cell proliferation assay in SKBR3 cells.; format: functional; conditions: SK-BR-3
[2] = Late stage assay provider results from the probe development effort to identify selective inhibitors of heat shock protein 90 (HSP90): Absorbance-based cell proliferation assay in MCF7 cells.; format: functional
Ephrin type-A receptor 4 = Ephrin type-A receptor 4 (Mus musculus, UniProt Q03137); assay: EphA4 ligand-binding antagonists – biochemical, colorimetric, mouse EphA4, primary screen (AID 689); format: functional
Sequence of Ephrin type-A receptor 4 (Q03137 whole entry): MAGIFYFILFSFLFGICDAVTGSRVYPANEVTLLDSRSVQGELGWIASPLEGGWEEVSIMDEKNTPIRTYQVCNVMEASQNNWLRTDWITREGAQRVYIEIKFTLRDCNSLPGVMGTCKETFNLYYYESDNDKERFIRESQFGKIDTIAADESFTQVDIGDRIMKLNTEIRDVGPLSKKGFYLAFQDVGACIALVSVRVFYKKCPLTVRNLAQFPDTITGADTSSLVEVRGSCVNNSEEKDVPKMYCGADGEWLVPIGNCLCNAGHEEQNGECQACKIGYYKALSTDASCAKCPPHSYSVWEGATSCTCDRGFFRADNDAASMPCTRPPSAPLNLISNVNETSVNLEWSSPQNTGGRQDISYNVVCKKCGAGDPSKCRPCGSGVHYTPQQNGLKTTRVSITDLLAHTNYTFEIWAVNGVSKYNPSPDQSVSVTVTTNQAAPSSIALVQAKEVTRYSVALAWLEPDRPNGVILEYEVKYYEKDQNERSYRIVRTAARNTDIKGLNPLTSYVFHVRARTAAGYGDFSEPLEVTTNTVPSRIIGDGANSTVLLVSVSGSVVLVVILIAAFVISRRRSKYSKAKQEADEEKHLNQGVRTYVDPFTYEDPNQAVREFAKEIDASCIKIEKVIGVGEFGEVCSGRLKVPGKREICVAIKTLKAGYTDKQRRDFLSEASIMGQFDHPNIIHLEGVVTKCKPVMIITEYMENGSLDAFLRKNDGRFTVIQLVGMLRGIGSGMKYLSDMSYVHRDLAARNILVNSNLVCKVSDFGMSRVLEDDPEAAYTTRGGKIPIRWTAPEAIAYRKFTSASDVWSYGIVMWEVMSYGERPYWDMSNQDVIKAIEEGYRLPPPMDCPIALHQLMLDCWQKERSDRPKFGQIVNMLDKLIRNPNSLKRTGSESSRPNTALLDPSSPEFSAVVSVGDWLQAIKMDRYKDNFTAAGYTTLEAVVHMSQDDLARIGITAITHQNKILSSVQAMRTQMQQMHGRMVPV

[3] = growth inhibition of yeast DHODH-expressing 3D7 parasites – SYBR Green, dry powder samples, dose response (AID 1159570); format: functional, cell-based;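 further: parasite growth measured after 72 hours of compound exposure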
[4] = growth inhibition of PfATP4-mutant resistant parasites – NITD609-resistant line, SYBR Green, dry powder, dose response (AID 1159571); format: functional, cell-based;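 further: parasites synchronized at ring stage by sorbitol before testing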
[5] = P. falciparum Dd2 growth inhibitors, dose response, SYBR Green, cherry-picked samples (AID 1159567); format: functional, cell-based
[6] = Dd2 malaria parasite growth inhibition potency – SYBR Green, dry powder samples, dose response (AID 1159566); format: functional, cell-based;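 further: potency for growth inhibition with lower SYBR green DNA signal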
[7] = HIV-1 AD8 envelope cell-cell fusion blockers – cherry-pick, dose response (AID 652062); format: functional, cell-based;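 further: luciferase signal from cell-cell fusion driven by HIV-1 clade B AD8 Env; potency is for inhibitors of fusion seen as a drop in luminescence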
cells [8] = format: functional, cell-based
[9] = blockade of melanocortin 4 receptor signaling – cell-based, plate reader, cherry pick, counter-screen for LGR2 antagonist project, dose response (AID 743444); format: functional;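 further: transfected HEK 293 cells stimulated with alpha-MSH peptide; potency of inhibitors of the alpha-MSH evoked signal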
[10] = target: T1, Trace amine-associated receptor 1 (Homo sapiens, UniProt Q96RJ0); assay: Counterscreen for agonists of the human trace amine associated receptor 1 (hTAAR1): Fluorescence-based cell-based high throughput dose response assay to identify hTAAR1 agonist that also desensitize TAAR1 receptor response.; format: functional
T1 sequence (Q96RJ0 whole entry): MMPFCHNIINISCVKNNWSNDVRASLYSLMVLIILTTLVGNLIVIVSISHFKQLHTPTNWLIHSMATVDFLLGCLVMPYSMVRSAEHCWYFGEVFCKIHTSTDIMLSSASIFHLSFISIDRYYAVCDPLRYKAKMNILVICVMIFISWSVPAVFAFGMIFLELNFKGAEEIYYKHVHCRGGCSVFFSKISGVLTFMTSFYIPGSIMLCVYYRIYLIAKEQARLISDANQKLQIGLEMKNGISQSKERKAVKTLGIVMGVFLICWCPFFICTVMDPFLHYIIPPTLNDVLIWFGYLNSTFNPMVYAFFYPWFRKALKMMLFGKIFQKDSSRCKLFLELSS

[11] = blockers of bursicon-stimulated LGR2 cAMP reporter – cell-based, HEK293, CRE-luciferase reporter, cherry pick, set 2, dose response (AID 743343); format: functional;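 further: transfected cells were stimulated with diluted bursicon conditioned medium after compound addition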
cells [12] = format: functional, cell-based; remark: listed apart in the source
[13] = toxicity toward HepG2 liver cells – cell-based, plate reader, cherry-pick, antagonist series, cytotoxicity control, dose response (AID 743416); format: functional
[14] = A549 cell cytotoxicity, dose response, cytotoxicity control, plate reader, cherry-pick, antagonist series (AID 743412); format: functional, cell-based
[15] = target: T1, Trace amine-associated receptor 1; assay: Fluorescence-based cell-based high throughput dose response assay to identify agonists of the human trace amine associated receptor 1 (TAAR1).; format: functional
[16] = Luminescence Cell-Based Dose Response HTS to Identify Inhibitors of 5'UTR Stem-Loop Driven Prion Protein mRNA Translation in H4 Neuroglioblastoma Cells. [Related pubchem assays: 1827 (Project Summary), 1813 (Primary HTS)]; format: functional
[17] = toxicity to human hepatoma HepG2 cells – cell-based, cherry-picked samples, cytotoxicity control, dose response (AID 1159577); format: functional
[18] = viability loss in HeLa cells – cytotoxicity control for MgcRacGAP inhibitor project, dose response (AID 624300); format: functional
[19] = target: T2, Rac GTPase-activating protein 1 (Homo sapiens, UniProt Q9H0H5); assay: blockers of MgcRacGAP-driven Rac1 GTP hydrolysis – biochemical, ADP Hunter fluorescence, primary and confirmatory, confirmation (AID 624330); format: functional
T2 sequence (Q9H0H5 whole entry): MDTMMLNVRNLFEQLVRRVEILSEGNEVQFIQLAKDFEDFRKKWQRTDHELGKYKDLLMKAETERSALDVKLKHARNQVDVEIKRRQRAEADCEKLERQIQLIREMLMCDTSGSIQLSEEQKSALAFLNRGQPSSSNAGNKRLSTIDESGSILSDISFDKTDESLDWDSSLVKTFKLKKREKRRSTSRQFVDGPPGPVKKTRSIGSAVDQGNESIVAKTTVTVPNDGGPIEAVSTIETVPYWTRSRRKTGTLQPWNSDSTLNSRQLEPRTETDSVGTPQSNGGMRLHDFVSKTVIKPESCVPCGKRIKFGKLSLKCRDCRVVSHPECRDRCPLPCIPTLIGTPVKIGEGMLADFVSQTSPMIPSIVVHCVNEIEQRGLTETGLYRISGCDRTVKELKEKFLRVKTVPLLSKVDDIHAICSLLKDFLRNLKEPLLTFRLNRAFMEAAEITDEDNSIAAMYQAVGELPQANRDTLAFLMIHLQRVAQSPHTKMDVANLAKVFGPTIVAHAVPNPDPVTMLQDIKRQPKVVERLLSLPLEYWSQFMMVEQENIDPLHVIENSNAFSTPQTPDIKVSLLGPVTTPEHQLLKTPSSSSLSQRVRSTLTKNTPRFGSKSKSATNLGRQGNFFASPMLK

[20] = target: T3, Probable nicotinate-nucleotide adenylyltransferase (Staphylococcus aureus (strain N315), UniProt P65502); format: functional, Staphylococcus aureus subsp. aureus N315;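 on IC50 Mean: confirmatory dose-response retesting of NadD inhibitor hits first found in an ultra-high-throughput screen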
T3 sequence (P65502 whole entry): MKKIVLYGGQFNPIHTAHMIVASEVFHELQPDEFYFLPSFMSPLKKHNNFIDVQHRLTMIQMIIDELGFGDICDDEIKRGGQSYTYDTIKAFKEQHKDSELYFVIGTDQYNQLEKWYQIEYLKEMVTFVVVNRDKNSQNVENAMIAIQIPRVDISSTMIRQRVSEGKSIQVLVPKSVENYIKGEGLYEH

[21] = target: T4, Voltage-gated N-type calcium channel alpha-1B subunit/Amyloid beta A4 precursor protein-binding family A member 1 (Homo sapiens, UniProt Q00975+Q02410); format: protein assay
T4 sequence (Q00975 whole entry): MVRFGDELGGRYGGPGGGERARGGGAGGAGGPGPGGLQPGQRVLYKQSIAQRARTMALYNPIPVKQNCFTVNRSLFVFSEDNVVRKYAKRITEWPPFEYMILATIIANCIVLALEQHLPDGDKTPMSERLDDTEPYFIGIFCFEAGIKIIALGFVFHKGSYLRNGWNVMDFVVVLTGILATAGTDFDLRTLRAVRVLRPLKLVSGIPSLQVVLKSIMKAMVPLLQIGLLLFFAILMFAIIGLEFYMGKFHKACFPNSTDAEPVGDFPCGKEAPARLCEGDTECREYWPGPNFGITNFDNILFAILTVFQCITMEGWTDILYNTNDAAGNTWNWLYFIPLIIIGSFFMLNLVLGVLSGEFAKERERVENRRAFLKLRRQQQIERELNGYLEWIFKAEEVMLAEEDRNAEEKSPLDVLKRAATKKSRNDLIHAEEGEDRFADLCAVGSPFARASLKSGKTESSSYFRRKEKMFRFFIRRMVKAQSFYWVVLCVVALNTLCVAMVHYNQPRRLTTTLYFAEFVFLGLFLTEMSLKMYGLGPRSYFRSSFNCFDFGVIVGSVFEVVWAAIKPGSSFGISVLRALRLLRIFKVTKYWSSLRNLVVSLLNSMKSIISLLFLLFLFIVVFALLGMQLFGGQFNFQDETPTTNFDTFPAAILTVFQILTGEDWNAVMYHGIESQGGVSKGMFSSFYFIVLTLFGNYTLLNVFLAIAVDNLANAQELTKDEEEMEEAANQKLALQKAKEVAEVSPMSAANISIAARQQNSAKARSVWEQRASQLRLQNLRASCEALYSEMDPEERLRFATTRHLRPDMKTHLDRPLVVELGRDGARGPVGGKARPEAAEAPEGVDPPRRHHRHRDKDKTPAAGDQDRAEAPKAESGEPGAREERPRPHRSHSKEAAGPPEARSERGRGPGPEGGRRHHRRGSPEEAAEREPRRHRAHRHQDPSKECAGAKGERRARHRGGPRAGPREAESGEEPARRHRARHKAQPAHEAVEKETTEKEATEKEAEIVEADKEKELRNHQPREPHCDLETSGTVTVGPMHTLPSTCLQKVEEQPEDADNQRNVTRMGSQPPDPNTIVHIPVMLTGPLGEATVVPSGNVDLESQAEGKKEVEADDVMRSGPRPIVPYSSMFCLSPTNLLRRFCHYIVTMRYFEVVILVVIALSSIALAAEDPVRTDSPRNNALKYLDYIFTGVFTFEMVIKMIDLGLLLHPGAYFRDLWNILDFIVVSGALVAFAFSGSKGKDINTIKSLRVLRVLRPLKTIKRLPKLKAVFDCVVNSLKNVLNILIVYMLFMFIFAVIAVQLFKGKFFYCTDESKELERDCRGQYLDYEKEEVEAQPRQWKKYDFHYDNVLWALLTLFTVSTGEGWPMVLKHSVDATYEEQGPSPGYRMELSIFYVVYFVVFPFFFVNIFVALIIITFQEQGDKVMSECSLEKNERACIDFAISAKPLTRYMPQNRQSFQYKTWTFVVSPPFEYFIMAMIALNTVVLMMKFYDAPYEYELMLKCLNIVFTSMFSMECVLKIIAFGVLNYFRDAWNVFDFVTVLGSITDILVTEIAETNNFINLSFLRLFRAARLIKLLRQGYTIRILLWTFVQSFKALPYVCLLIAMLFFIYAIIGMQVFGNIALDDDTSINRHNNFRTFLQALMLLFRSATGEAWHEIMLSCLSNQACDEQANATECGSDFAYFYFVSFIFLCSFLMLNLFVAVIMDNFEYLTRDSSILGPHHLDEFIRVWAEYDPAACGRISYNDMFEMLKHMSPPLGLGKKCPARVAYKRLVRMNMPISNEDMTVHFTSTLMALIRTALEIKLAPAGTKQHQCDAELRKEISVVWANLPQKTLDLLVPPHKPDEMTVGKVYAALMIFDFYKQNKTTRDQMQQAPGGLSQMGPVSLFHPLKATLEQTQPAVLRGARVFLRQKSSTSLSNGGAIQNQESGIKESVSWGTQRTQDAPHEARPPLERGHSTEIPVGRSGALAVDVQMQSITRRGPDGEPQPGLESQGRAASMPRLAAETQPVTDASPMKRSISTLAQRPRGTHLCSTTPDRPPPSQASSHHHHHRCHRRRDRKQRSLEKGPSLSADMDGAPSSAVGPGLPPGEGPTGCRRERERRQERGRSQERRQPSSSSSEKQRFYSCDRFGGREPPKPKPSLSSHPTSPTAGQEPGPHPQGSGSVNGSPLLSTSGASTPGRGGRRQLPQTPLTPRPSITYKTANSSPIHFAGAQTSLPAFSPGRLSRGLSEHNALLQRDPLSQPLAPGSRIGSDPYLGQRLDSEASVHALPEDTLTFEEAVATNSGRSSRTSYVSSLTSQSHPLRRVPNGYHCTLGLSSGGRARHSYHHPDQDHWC
T4 sequence (Q02410 whole entry): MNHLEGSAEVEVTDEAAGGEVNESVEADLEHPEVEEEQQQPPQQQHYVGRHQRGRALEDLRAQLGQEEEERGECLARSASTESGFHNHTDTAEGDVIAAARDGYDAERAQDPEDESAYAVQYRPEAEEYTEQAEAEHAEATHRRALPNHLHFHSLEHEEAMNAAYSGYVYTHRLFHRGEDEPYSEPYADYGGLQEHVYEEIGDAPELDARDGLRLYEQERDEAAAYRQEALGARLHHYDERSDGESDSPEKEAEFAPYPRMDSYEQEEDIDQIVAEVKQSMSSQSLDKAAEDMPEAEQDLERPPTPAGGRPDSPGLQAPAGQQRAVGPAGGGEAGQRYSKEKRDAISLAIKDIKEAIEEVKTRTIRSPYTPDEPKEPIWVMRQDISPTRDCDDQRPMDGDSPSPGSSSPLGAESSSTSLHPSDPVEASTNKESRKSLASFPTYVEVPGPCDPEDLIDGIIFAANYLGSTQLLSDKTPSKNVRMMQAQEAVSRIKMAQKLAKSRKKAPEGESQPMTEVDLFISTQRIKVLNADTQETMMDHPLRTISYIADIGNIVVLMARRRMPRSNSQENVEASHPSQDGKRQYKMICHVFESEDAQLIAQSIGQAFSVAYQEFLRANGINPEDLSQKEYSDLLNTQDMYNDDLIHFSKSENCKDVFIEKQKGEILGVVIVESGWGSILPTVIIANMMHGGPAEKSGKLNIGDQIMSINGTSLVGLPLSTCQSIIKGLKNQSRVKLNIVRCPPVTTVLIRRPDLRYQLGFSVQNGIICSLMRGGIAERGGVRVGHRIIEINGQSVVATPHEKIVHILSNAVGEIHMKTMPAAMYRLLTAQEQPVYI

[22] = target: T3, Probable nicotinate-nucleotide adenylyltransferase; format: functional, Staphylococcus aureus subsp. aureus N315; conditions: read-out: IC50_Mean
Caspase-6 = target: T5, Caspase-6 (Homo sapiens, UniProt P55212); assay: inhibition of CASP6 peptide cleavage – biochemical, VEID-R110 fluorescence, cherry-pick, dose response (AID 720632)
T5 sequence (P55212 whole entry): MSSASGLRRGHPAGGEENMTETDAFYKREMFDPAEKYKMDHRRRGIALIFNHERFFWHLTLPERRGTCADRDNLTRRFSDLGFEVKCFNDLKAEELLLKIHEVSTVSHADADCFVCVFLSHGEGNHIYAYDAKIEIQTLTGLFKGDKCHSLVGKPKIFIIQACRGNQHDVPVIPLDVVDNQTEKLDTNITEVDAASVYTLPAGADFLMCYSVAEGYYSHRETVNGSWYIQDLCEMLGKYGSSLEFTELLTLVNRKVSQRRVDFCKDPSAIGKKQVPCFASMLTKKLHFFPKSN

[23] = target: T4, Voltage-gated N-type calcium channel alpha-1B subunit/Amyloid beta A4 precursor protein-binding family A member 1; format: protein assay; remark: listed apart in the source
H9c2 = assay: cells; format: functional, cell-based; conditions: Rattus norvegicus, H9c2, Myocardium;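 further: confirmatory concentration-response retest of ultra-high-throughput screening hits for modulation of myocardial damage; cell death induced by hydrogen peroxide oxidative stress; compound pretreatment for 60 min then peroxide exposure for 2 h; potency is for protecting the cells against peroxide damage rather than for killing them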
[24] = target: Dual specificity tyrosine-phosphorylation-regulated kinase 1A (Rattus norvegicus, UniProt Q63470); format: biochemical, Homo sapiens
[25] = target: T6, Adenosylmethionine-8-amino-7-oxononanoate aminotransferase (Mycobacterium tuberculosis, UniProt P9WQ81); assay: Mycobacterium tuberculosis BioA enzyme inhibitor Measured in Biochemical System Using Plate Reader - 2163-02_Inhibitor_Dose_CherryPick_Activity.; format: functional, Mycobacterium tuberculosis UT205
T6 sequence (P9WQ81 whole entry): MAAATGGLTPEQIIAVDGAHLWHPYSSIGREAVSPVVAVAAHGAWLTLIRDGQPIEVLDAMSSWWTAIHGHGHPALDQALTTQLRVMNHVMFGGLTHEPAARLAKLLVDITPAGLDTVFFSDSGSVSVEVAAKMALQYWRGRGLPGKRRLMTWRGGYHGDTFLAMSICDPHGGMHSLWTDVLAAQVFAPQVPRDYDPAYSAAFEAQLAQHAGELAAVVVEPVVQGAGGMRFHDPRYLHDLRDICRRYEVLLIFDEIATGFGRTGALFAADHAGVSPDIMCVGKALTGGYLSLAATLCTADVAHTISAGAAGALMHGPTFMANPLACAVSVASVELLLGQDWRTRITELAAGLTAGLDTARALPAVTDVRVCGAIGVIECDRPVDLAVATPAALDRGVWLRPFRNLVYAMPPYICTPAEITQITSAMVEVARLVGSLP

[26] = target: T7, DNA repair protein RAD52 homolog (Homo sapiens, UniProt P43351); format: functional, biochemical
T7 sequence (P43351 whole entry): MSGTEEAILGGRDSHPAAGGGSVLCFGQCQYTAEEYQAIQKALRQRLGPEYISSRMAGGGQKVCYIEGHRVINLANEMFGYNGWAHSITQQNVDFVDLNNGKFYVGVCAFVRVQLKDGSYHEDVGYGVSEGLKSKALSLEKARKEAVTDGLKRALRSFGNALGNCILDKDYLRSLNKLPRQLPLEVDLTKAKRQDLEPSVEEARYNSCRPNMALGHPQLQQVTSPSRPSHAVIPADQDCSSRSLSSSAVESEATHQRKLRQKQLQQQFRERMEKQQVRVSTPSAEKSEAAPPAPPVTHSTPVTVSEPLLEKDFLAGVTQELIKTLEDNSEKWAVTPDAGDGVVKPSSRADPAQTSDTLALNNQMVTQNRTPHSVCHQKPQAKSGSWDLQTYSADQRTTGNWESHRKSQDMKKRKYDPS

With CCOc1ccccc1N/C=C1\C(=O)OC(=O)c2ccccc21 the IC50 [1] was > 100 µM (inactive) and the IC50 [2] was > 100 µM (inactive).
In the case of CCCCc1ccc(NC(=O)c2cc(=O)c(OC)c[nH]2)cc1, the IC50 [1] is reported as > 100 µM (inactive) and the IC50 [2] is reported as > 100 µM (inactive).
In the case of COc1ccc2oc(=O)c(Br)cc2c1, the IC50 [1] is reported as 80.2 µM (inactive) and the IC50 [2] is reported as > 100 µM (inactive).
For N#Cc1sc2nc(-c3cccs3)cc(-c3ccccc3)c2c1N, the IC50 (Ephrin type-A receptor 4) was > 100 µM (not active).
In the case of O=C1OC(=O)/C(=C\NC23CC4CC(CC(C4)C2)C3)C=C1Br, the IC50 [1] is reported as 12.9 µM (inactive) and the IC50 [2] is reported as 2.6 µM (active).
In the case of COc1ccc2c3c(n(C)c2c1)[C@@H](CO)N(C(=O)C1CC1)CC31CN(C(=O)Nc2cccc(F)c2)C1, the AC50 [3] is reported as 0.209 µM (active), the AC50 [4] is reported as 0.164 µM (active) and the AC50 [5] is reported as 0.692 µM (active). For the same molecule, the AC50 [6] was 0.196 µM (active).
In the case of CCCCS(=O)(=O)N1CCN(C(=O)C(=O)c2cccc(C(F)(F)F)c2)CC1, the AC50 [7] is reported as 49.5 µM (active).
With Cc1ccc(Nc2nc(N)c3ccccc3n2)cc1C the IC50 (cells [8]) was > 29.9 µM (inactive), the AC50 [9] was 5 µM (active) and the IC50 [10] was 8.34 µM (active). The AC50 [11] was 2.9 µM (active), the EC50 (cells [12]) was > 29.9 µM (inactive) and the AC50 [13] was 2.36 µM (active). For the same molecule, the AC50 [14] was 34 µM (active), the EC50 [15] was 4.53 µM (active) and the EC50 [16] was 7.32 µM (active).
In the case of COc1ccccc1-c1ccc2c(c1)[C@H]1[C@H](CCN1C(=O)C1CCC1)[C@H](CO)N2, the AC50 [17] is reported as 30.5 µM (active) and the AC50 [5] is reported as 5.25 µM (active).
With CN1C(=O)c2cc(NC(=O)c3ccc4c(c3)OCO4)ccc2OC[C@@H]2O[C@@H](CC(=O)O)CC[C@@H]21 the AC50 [17] was 38.5 µM (active).
In the case of Fc1ccc(-c2cc3nc4c(c(N5CCOCC5)n3n2)CCCC4)cc1, the IC50 (Ephrin type-A receptor 4) is reported as > 100 µM (not active).
For CCc1nc(Nc2ccc(O)cc2)c2oc3ccccc3c2n1, the CC50 [18] was 87.6 µM (active) and the IC50 [19] was 18.2 µM (active).
With Cn1c2ccccc2c2cc(/C=N/NC(=O)c3cc(O)ccc3O)ccc21 the IC50 [20] was 18 µM (active), the IC50 [21] was 4.94 µM (active) and the IC50 [22] was 37.3 µM (active). For the same molecule, the AC50 (Caspase-6) was 43.1 µM (active), the IC50 [23] was 15.2 µM (active) and the IC50 (H9c2) was > 79 µM (inactive).
With COc1ccc(NC(=O)N(C)C[C@H]2Oc3ccc(NC(=O)c4ccncc4)cc3C(=O)N([C@H](C)CO)C[C@@H]2C)cc1 the IC50 [20] was 27.8 µM (active) and the IC50 [22] was 40.4 µM (active).
With COc1cc(/C=C2\SC(Nc3ccccc3)=NC2=O)cc(Cl)c1O the CC50 [18] was 100 µM (active), the IC50 [19] was 55.7 µM (active) and the AC50 [24] was 7.03 µM (active).
For Cc1cc(N(CCCl)CCCl)ccc1C=NNC(=O)Cc1cc(=O)oc2cc(O)ccc12, the IC50 [20] was 8.75 µM (active) and the IC50 [22] was 28.7 µM (active).
In the case of COc1ccc2c3c([nH]c2c1)[C@H](CO)N(S(=O)(=O)c1ccc(C)cc1)CC31CCN(C(=O)Cc2cccnc2)CC1, the AC50 [17] is reported as > 39 µM (inactive), the AC50 [3] is reported as 0.54 µM (active) and the AC50 [4] is reported as 0.265 µM (active). The AC50 [5] was 1.19 µM (active) and the AC50 [6] was 0.332 µM (active).
In the case of C/N=C1/S/C(=C\c2ccc(O)c(Br)c2)C(=O)N1C, the CC50 [18] is reported as 74.9 µM (active), the IC50 [19] is reported as 42 µM (active) and the AC50 [24] is reported as 0.194 µM (active).
In the case of COc1cc2c3cc1Oc1cc(ccc1O)C[C@@H]1c4c(cc(OC)c(O)c4Oc4cccc(c4)C[C@@H]3N(C)CC2)CC[N+]1(C)C, the AC50 [25] is reported as 15.4 µM (active) and the AC50 [26] is reported as 8.2 µM (active).
For CCC(=O)N1CC[C@@H]2[C@H]1c1cc(-c3cccc(F)c3)ccc1N(C)[C@H]2CO, the AC50 [25] was 5.53 µM (active).
